Values of other authors in patent US12171169B2, “Pest repelling drip irrigation pipe” (RIVULIS PLASTRO LTD., priority 2017, dated 2024).

How the values were obtained:
pests = conditions: 1R-cis versus 1S-cis enantiomer
humans = conditions: 1S-cis versus 1R-cis enantiomer

SMILES: Cc1c(COC(=O)[C@@H]2[C@H](/C=C(\Cl)C(F)(F)F)C2(C)C)cccc1-c1ccccc1 [1R-cis-bifenthrin, (2-methyl-[1,1′-biphenyl]-3-yl)methyl (1R,3R)-3-((Z)-2-chloro-3,3,3-trifluoroprop-1-en-1-yl)-2,2-dimethylcyclopropane-1-carboxylate]
- effectiveness as a pesticide relative to 1S-cis-bifenthrin (pests): more than 300 times

SMILES: Cc1c(COC(=O)[C@H]2[C@@H](/C=C(\Cl)C(F)(F)F)C2(C)C)cccc1-c1ccccc1 [1S-cis-Bifenthrin, (2-methyl-[1,1′-biphenyl]-3-yl)methyl (1S,3S)-3-((Z)-2-chloro-3,3,3-trifluoroprop-1-en-1-yl)-2,2-dimethylcyclopropane-1-carboxylate]
- toxicity to humans relative to 1R-cis-bifenthrin (humans): 3-4 times
